Test results published in US7972615B2, “Peptide compositions for coating metal medical devices with vancomycin” (Affinergy, Inc., priority 2008, dated 2011).
Square brackets hold non-standard residues; d marks the D form. Ends that are not written are not given here. miniPeg = miniPEG linker unit; Aun = NCCCCCCCCCCC(=O)O

Assays:
[1] = type: binding; conditions: FIG. 1; 18 hour incubation in 10% BSA+10 mM guanidinium chloride
From the text: In this example, illustrated are unexpected beneficial properties of the composition of the invention, including but not limited to, one or more improved biophysical properties. Such one or more unexpected beneficial properties of a composition of the invention may comprise an increase in stability. An increase in stability may comprise any one or more of resistance to chemical denaturation, resistance to proteolytic degradation, improved retention to a substrate (e.g., resistance to being competed off a substrate to which it is bound, such as by proteins or other biomolecules found in body tissues). Thus, to ascertain a beneficial property of a composition of the invention, it is compared to the properties of a component of the composition-namely, a substrate-binding peptide by itself (e.g., without fatty acid covalently coupled thereto). An assay was developed that, from our direct comparisons (see, e.g., discussion of FIG. 2 below, and Example 7 herein), mimicked the effect of incubation of substrate-binding peptide with human plasma on stability of binding of a substrate-binding peptide to its substrate. The assay utilized incubations in the presence of 10% bovine serum album (BSA) with 10 mM guanidinium chloride. The high BSA concentration mimics the elevated albumin content of human plasma, and the guanidinium chloride is used to compete with any charged interactions involved in binding of the substrate-binding peptide to its substrate.
In this assay, two immunoassay plates were prepared for a “side-by-side” comparison of binding of a test sample (substrate-binding peptide or composition of the invention) to its substrate with or without the presence of 10% BSA with 10 mM guanidinium chloride. The wells of each 96-well polypropylene plate were incubated with 350 μl BSA 1% in PBS for 30 minutes at 20° C. with 500 rpm shaking. To each well was added one acetone-cleaned 3/32″ 316LVM stainless steel bead, followed by addition of dilutions in PBS of the test sample in a range of concentrations starting from 10 μM. Final volume in each well was 200 μl. The plates were incubated for 1 hour at 20° C. with 500 rpm shaking to allow for the binding to occur. The beads were washed 3 times with 250 μl PBS using a plate washer. […]
In the immunoassay for detecting binding without the presence of 10% BSA with 10 mM guanidinium chloride, added to each well was 200 μl of streptavidin AP (AP is alkaline phosphatase) at 1/200 in TBS+1% BSA. […] When color has developed, each well was read at OD405 nm in endpoint mode using a plate reader. […] When color has developed, the wells were read at OD405 nm in endpoint mode using a plate reader. […]

[2] = Critical micelle concentration (CMC) assay with methyl orange; type: physicochemical; conditions: pH 7 PBS, A484
Protocol: Formation of a composition of the invention, and evidence of macromolecular network formation, may be monitored or quantified by any means known in the art. In this example, macromolecular formation was detected using a standard assay for determining critical micelle concentration (“CMC”). In this assay, a solution containing the composition of the invention (in a range of concentrations in pH 7 phosphate buffered saline (“PBS”)) was mixed with a solution of methyl orange (0.04 mM in PBS), and the absorbance of the mixture was measured at 484 nm (A484). CMC is the concentration at which a sharp decrease in absorbance at A484 is observed, a change in the optical properties of methyl orange when trapped in a hydrophobic phase, such as caused by self-association as a macromolecular network (Table 7, “CMC”). Also included in this assay were an assay control peptide having an amino acid sequence of SEQ ID NO:122 (Table 7, “Control”), and compound 119 (a PEGylated peptide, the peptide having an amino acid sequence of SEQ ID NO:122, as described in more detail in Example 6 herein).

[3] = Stent flow model (in vitro model for in vivo stability on a stent); type: binding; conditions: radiolabelled
Protocol: In this example, an in vitro model for in vivo stability on a medical device comprising a stent was performed. The stent flow model included a “circulatory system” comprising a peristaltic pump and clear silicone tubing into which is placed a stent (8 mm, stainless steel) coated with a composition according to the invention. Coating of the stents was accomplished by incubating the stents with radiolabelled composition 132 (specific activity 2,400 cpm/pmole at 20 μM in PBS) for 1 hour at 20° C., followed by extensive washing with buffer. […] In another variation of the stent flow model, 10% BSA+10 mM guanidinium chloride was circulated through the circulatory system at a flow rate of 5 ml/min for 18 hours at 37° C. After circulation in the respective variations of the stent flow model, the coated stents were then counted for radioactivity. To serve as an assay “control”, some coated stents were not placed in the stent flow model, but rather counted for radioactive counts to provide a reference from which percent retention could be calculated for those coated stents included in the stent flow model.

[4] = Vancomycin loading onto titanium bead, HPLC of HCl eluate; type: binding; conditions: components mixed with vancomycin, 30 mins at 20° C., washed three times
Protocol: The experimental procedure used for the embodiments described above was as follows. […] All three components were mixed and then applied to the metal bead. […] All three components were mixed and then applied to the metal bead. […] The mixtures were applied to the metal beads and incubated for 30 mins at 20° C. with 700 rpm shaking. The beads were washed three times with 350ul PBS. Beads were analyzed as follows: 200 ul of 100 mM HCl was added to each bead and incubated for 30 mins at 20° C. with 1,000 rpm shaking. The eluate from each bead was analyzed by HPLC using Phenomenex Luna 3 um column, 50×4.60 mm. Output was compared to a standard curve for vancomycin to determine the amount of vancomycin retained onto the metal bead.

## 119: Fmoc-NH-(PEG)27-CO2H covalently coupled to a peptide having the amino acid sequence of SEQ ID NO:122 (PEGylated peptide) (SSHRTNHKKNNPKKKNKTRGSSGK; not fully specified (N-terminus); also: Fmoc-NH-(PEG)27-CO2H covalently coupled, site not given here) [Compound 119, reference compound]
[1]
  retention of binding of substrate-binding peptide component to its substrate, compared to substrate-binding peptide alone (SEQ ID NO: 122): failed to promote retention

## 120: amino acid sequence YWAWAYAW (SEQ ID NO:129) covalently coupled to a peptide having the amino acid sequence of SEQ ID NO:122 (YWAWAYAWSSHRTNHKKNNPKKKNKTRGSSGK) [Compound 120, reference compound]
[1]
  retention of binding of substrate-binding peptide component to its substrate, compared to substrate-binding peptide alone (SEQ ID NO: 122): failed to promote retention

## AUD-AUD-AUD-AUD-AUD-AUD-SEQ ID NO: 122 ([Aun][Aun][Aun][Aun][Aun][Aun]SSHRTNHKKNNPKKKNKTRGSSGK) [Compound 130]
[2]
  CMC: 0.041 µM

## AUD-AUD-AUD-AUD-SEQ ID NO: 122 ([Aun][Aun][Aun][Aun]SSHRTNHKKNNPKKKNKTRGSSGK) [Compound 122]
[1]
  retention of binding of substrate-binding peptide component to its substrate, compared to substrate-binding peptide alone (SEQ ID NO: 122): significantly improved retention

## AUD-AUD-K-AUD-AUD-AUD-AUD-SEQ ID NO: 122 ([Aun][Aun]K[Aun][Aun][Aun][Aun]SSHRTNHKKNNPKKKNKTRGSSGK) [Compound 123]
[1]
  retention of binding of substrate-binding peptide component to its substrate, compared to substrate-binding peptide alone (SEQ ID NO: 122): significantly improved retention

## Ac-Y-AUD-AUD-AUD-AUD-AUD-AUD-SEQ ID NO: 122 (Ac-Y[Aun][Aun][Aun][Aun][Aun][Aun]SSHRTNHKKNNPKKKNKTRGSSGK) [Compound 132]
[3]; 10% BSA+10 mM guanidinium chloride circulated at 5 ml/min for 18 hours at 37° C.
  composition remained bound to the coated stents: over 90%
[3]; human plasma circulated at 5 ml/min for 7 days at 37° C.
  composition remained bound to the coated stents: over 90%

## MA-Ahx-SSCLIDIYGVCHN FDAY-miniPeg-miniPeg-HKKNNPKKKNKTRGSSK(Biotin) [SEQ ID NO: 164]
[4]
  Vancomycin Load: 278 pmol/cm2

## SSSCLIDMYGVCHNFDGAYDSSRG-miniPeg-miniPeg-SSHRTNHKKNNPKKKNKTRGSSGK (SSSCLIDMYGVCHNFDGAYDSSRG[miniPeg][miniPeg]SSHRTNHKKNNPKKKNKTRGSSGK; cysteine pairing not given here) [SEQ ID NO: 163]
[4]
  Vancomycin Load: 54 pmol/cm2
